System: alternative pathway-mediated erythrocyte lysis
Test: not given
Settings: alternative pathway-mediated erythrocyte lysis assay (WO2004/026328); cited from earlier work

In the case of CC[C@H](C)[C@H](N)C(=O)N[C@H]1CSSC[C@@H](C(=O)N[C@H](C(N)=O)[C@@H](C)O)NC(=O)[C@H](CCCN=C(N)N)NC(=O)[C@H](Cc2cnc[nH]2)NC(=O)[C@H](Cc2cnc[nH]2)NC(=O)CNC(=O)[C@H](Cc2c[nH]c3ccccc23)NC(=O)[C@H](CC(=O)O)NC(=O)[C@H](CCC(N)=O)NC(=O)[C@H](C(C)C)NC(=O)[C@H](C(C)C)NC1=O [Compstatin], the IC50 is listed as 12 µM.

System: complement activation
Test: not given
Settings: relative to compstatin amidated at the C-terminus; published data; cited from earlier work

Compared with “Ac-ICV(1-Nal)QDWGAHRCT-COOH [Ac V4(1-Nal)/H9A-OH]”, “Ac-ICV(2-Igl)QDWGAHRCT-CONH2 [Ac-V42Igl/H9A]” is higher in Activity over compstatin: 30xmore for the first, 39xmore for the second.

First: Ac-ICV(2-Igl)QDWGAHRCT-COOH [Ac-V42Igl/H9A-OH]
Second: Ac-ICV(2-Nal)QDWGAHRCT-CONH2 [Ac-V4(2-Nal)/H9A]
The Activity over compstatin of the first is lower: 37xmore for the first, 99xmore for the second.

Going from “Ac-ICV(2-Nal)QDWGAHRCT-COOH [Ac V4(2-Nal)/H9A-OH]” to “Ac-ICV(5-methyl-W)QDWGAHRCT-CONH2 [Ac-V4(5-MeW)/H9A]”, the Activity over compstatin rises from 38xmore to 67xmore.

First: Ac-ICV(5fW)QDWGAHRCT-CONH2 [Ac-V4(5fW)/H9A]
Second: Ac-ICV(Bpa)QDWGAHRCT-CONH2 [Ac-V4(Bpa)/H9A]
The Activity over compstatin of the first is lower: 31xmore for the first, 86xmore for the second.

First: Ac-ICV(Bpa)QDWGAHRCT-COOH [Ac-V4(Bpa)/H9A-OH]
Second: Ac-ICV(Bta)QDWGAHRCT-CONH2 [Ac-V4(Bta)/H9A]
The Activity over compstatin of the first is lower: 49xmore for the first, 64xmore for the second.

First: Ac-ICV(Bta)QDWGAHRCT-COOH [Ac-V4(Bta)/H9A-OH]
Second: Ac-ICVDhtQDWGAHRCT-COOH [Ac-V4Dht/H9A-OH]
The Activity over compstatin of the first is higher: 65xmore for the first, 5xmore for the second.

Going from Ac-ICVVQDWGHHRCT-CONH2 [Ac-compstatin] to Ac-ICVWQDWGAHRCT-CONH2 [Ac-V4W/H9A], the Activity over compstatin rises from 3xmore to 45xmore.

Going from “Ac-ICVWQDWGAHRCdT-COOH [Ac-V4W/H9A/T13dT-OH]” to Ac-ICVYQDWGAHRCT-CONH2 [Ac-V4Y/H9A], the Activity over compstatin falls from 55xmore to 14xmore.

For “H-GICV(6fW)QD(6fW)GAHRCTN-COOH (GICVXQDXGAHRCTN; not fully specified; 6-fluoro-Trp at V4 and W7; SITE 1 N-term H; MOD_RES 5 6-fluoro-L-tryptophan; MOD_RES 8 6-fluoro-L-tryptophan; SITE 15 C-term COOH) [+G/V4(6fW)/W7(6fW)H9A+N-OH]”, the Activity over compstatin is listed as 126xmore.

System: not listed separately
Test: Phase 1 single and multiple ascending dose trial of nebulized CA28 in healthy volunteers
Format: in vivo, human
Settings: 30 mg/day inhaled; after 10 days of treatment
Description: In the single ascending dose part of the trial, 16 subjects were enrolled in four cohorts of four subjects each.
Four subjects were enrolled in the first cohort of the multiple ascending dose part of the trial. These subjects were to receive 14 consecutive days of treatment with a 60 mg/day dose of the drug. […] The trial was paused and subsequently resumed, with subjects receiving 30 mg/day. […] The trial was then terminated.
Both subjects responded within hours to first-line antibiotic treatment, which is indicative of bacterial pathogenesis. In this trial, subjects were vaccinated against Neisseria meningitides and closely monitored for signs of infections. While the bacterial cultures were all negative, it is believed that Haemophilus influenzae or Streptococcus pneumoniae might have been implicated in the episodes of fever that were observed because C3 deficient individuals are known to be at increased risk of infection with Neisseria meningitidis, Haemophilus influenzae and Streptococcus pneumoniae. Vaccines against these three pathogens are available, and it is believed that the risk of infection can be addressed by vaccination, potentially with addition of prophylactic antibiotics (e.g., penicillin V).

In the case of CC[C@H](C)[C@H](NC(C)=O)C(=O)N[C@H]1CSSC[C@@H](C(=O)N[C@H](C(N)=O)[C@@H](C)O)NC(=O)[C@H](CCCNC(=N)N)NC(=O)[C@H](Cc2cnc[nH]2)NC(=O)[C@H](C)NC(=O)CNC(=O)[C@H](Cc2c[nH]c3ccccc23)NC(=O)[C@H](CC(=O)O)NC(=O)[C@H](CCC(N)=O)NC(=O)[C@H](Cc2cn(C)c3ccccc23)NC(=O)[C@H](C(C)C)NC1=O [CA28], the “adverse event possibly related to pharmacology” value is reported as “Another subject developed signs and symptoms consistent with a potential bacterial infection”.

Same assay, conditions: 60 mg/day inhaled; following nine days of treatment

For CC[C@H](C)[C@H](NC(C)=O)C(=O)N[C@H]1CSSC[C@@H](C(=O)N[C@H](C(N)=O)[C@@H](C)O)NC(=O)[C@H](CCCNC(=N)N)NC(=O)[C@H](Cc2cnc[nH]2)NC(=O)[C@H](C)NC(=O)CNC(=O)[C@H](Cc2c[nH]c3ccccc23)NC(=O)[C@H](CC(=O)O)NC(=O)[C@H](CCC(N)=O)NC(=O)[C@H](Cc2cn(C)c3ccccc23)NC(=O)[C@H](C(C)C)NC1=O [CA28], the “adverse event possibly related to pharmacology” value was “one subject developed signs and symptoms consistent with a potential bacterial infection”.

Same assay, conditions: single inhaled dose 20, 60, 150 or 350 mg

With CC[C@H](C)[C@H](NC(C)=O)C(=O)N[C@H]1CSSC[C@@H](C(=O)N[C@H](C(N)=O)[C@@H](C)O)NC(=O)[C@H](CCCNC(=N)N)NC(=O)[C@H](Cc2cnc[nH]2)NC(=O)[C@H](C)NC(=O)CNC(=O)[C@H](Cc2c[nH]c3ccccc23)NC(=O)[C@H](CC(=O)O)NC(=O)[C@H](CCC(N)=O)NC(=O)[C@H](Cc2cn(C)c3ccccc23)NC(=O)[C@H](C(C)C)NC1=O [CA28] the safety and tolerability was “well tolerated and no serious adverse events were reported”.

System: not listed separately
Test: Inhalation studies, single dose and 14 day repeated dose
Settings: cynomolgus monkey, in vivo, inhaled or intranasal; 14 day repeated dose; read-out: highest inhaled dose tested without drug-related findings
Description: Inhalation studies of single dose or repeated dosing were conducted in dog and cynomolgus monkey. […] These doses were 25 mg/kg/d in a 7 day repeated dose study in the dog, 80 mg/kg in a single dose study in the monkey, and 30 mg/kg/day in a 14 day repeated dose in the monkey.

Work on CC[C@H](C)[C@H](NC(C)=O)C(=O)N[C@H]1CSSC[C@@H](C(=O)N[C@H](C(N)=O)[C@@H](C)O)NC(=O)[C@H](CCCNC(=N)N)NC(=O)[C@H](Cc2cnc[nH]2)NC(=O)[C@H](C)NC(=O)CNC(=O)[C@H](Cc2c[nH]c3ccccc23)NC(=O)[C@H](CC(=O)O)NC(=O)[C@H](CCC(N)=O)NC(=O)[C@H](Cc2cn(C)c3ccccc23)NC(=O)[C@H](C(C)C)NC1=O [CA28] yielded an NOAEL at 336 h of 30 mg/kg/day.
